Source: paper PMC8066157, “Bovine Viral Diarrhea Virus (BVDV): A Preliminary Study on Antiviral Properties of Some Aromatic and Medicinal Plants” (Pathogens, 2021)
“Also recorded” adds a separate entry of the source. Like-named read-outs stand apart in the source and are kept apart here.

Key:
BVDV [1] = assay: microbe, parasite or virus in culture; format: cell-based, bovine viral diarrhea virus (strain NADL); conditions: read-out: EC50 BVDV
MDBK cells = assay: Cytotoxicity in mock-infected MDBK cells (MTT); conditions: for CC50: read-out: CC50 MDBK, mock-infected MDBK cells, MTT, pure compounds
[2] = Cytotoxicity in mock-infected MDBK cells (MTT); conditions: bovine (Bos taurus), mock-infected MDBK cells (Madin-Darby bovine kidney)
DENV-2 = format: cell-based, dengue virus (DENV-2)
YFV = format: cell-based, yellow fever virus (strain 17-D)
WNV = format: cell-based, west Nile virus
in vitro [3] = conditions: monkey (Cercopithecus aethiops)
RSV = assay: microbe, parasite or virus in culture; format: cell-based, human respiratory syncytial virus (strain A2); conditions: human respiratory syncytial virus, Vero 76, read-out: EC50 RSV
in vitro [4] = conditions: human
VV = format: cell-based, vaccinia virus
CV-B5 = assay: organism not typed; format: cell-based, coxsackie type B5; conditions: Vero 76, read-out: EC50 CV-B5
BVDV [5] = assay: Virucidal assay against BVDV virions; design: species or system bovine viral diarrhea virus; conditions: 100 µM, 2 h, 4 and 37 °C
BVDV [6] = format: cell-based, bovine viral diarrhea virus; conditions: 100, 20, 4, 0.8 µM
[7] = Bovine viral diarrhea virus isolates and strains, MDBK

Molecule | EC50 (BVDV [1]) [µM] | CC50 (MDBK cells) [µM] | EC50 (BVDV [1]; [7]) [µM] | CC50 [2] [µM] | also measured
2+β Thujone | > 100 | > 100 |  |  | 
CC12CCC(CC1)C(C)(C)O2 [1,8-Cineole] |  |  | > 100 | > 100 | 
C[C@@]1(O)[C@H](O)[C@@H](CO)O[C@H]1n1cnc2c(=O)[nH]c(N)nc21 [2′-C-Me-Guanosine] | 1.6 ± 0.2 | > 100 |  |  | EC50 (DENV-2): 0.3 µM; EC50 (YFV): 1.2 µM; EC50 (WNV): 0.4 µM; CC50 (BHK cells): 60 µM
O=c1cnn([C@@H]2O[C@H](CO)[C@@H](O)[C@H]2O)c(=O)[nH]1 [6-Aza-Uridine] |  |  |  |  | CC50 (in vitro [3]): 4 µM; EC50 (RSV): 1 µM
C=C1C2CCC(C2)C1(C)C (centres unmarked) [Camphene] |  |  | > 100 | > 100 | 
CC12CCC(CC1=O)C2(C)C (centres unmarked) [Camphor] |  |  | > 100 | > 100 | 
O=C1Nc2ccc(Cl)cc2[C@@](C#CC2CC2)(C(F)(F)F)O1 [Efavirenz] |  |  |  |  | CC50 (in vitro [4]): 40 µM
C=C(C)[C@H]1CC=C(C)CC1 [Limonene] | > 100 | > 100 |  |  | 
COc1c(C)c2c(c(O)c1C/C=C(\C)CCC(=O)O)C(=O)OC2 [Mycophen.Ac.] |  |  |  |  | EC50 (VV): 1.5 µM; CC50 (Vero-76 cells): 20 µM
Cc1cc(CCCOc2c(C)cc(-c3noc(C(F)(F)F)n3)cc2C)on1 [Pleconaril] |  |  |  |  | CC50 (in vitro [3]): > 100 µM; EC50 (CV-B5): 0.005 µM
C=C1CC/C=C(\C)CC[C@@H]2[C@@H]1CC2(C)C [Trans-Caryophyllene] |  |  | 90 ± 1 | > 100 | 
C/C1=C\CC/C(C)=C/CC(C)(C)/C=C/C1 [α-Humulene] | 36 ± 0.5 | > 100 |  |  | Virucidal activity (BVDV titer of treated vs untreated virus) (BVDV [5]): No significant differences; Cytotoxicity (in words) (MDBK cells; MDBK cells): non-cytotoxic; Reduction of BVDV titer (yield reduction) (BVDV [6]): dose-dependent reduction of virus titer; also recorded: reduce the viral BVDV titer in vitro assays in a dose-dependent manner
C=C1CCC2CC1C2(C)C (stereo not drawn) [β-Pinene] |  |  | > 100 | > 100 | 
